Assay results reported in EPA's ToxRefDB 2.

How the values were obtained:
rat [1] = details: Multigenerational reproductive toxicity study; sprague dawley; Oral; Gavage/Intubation; dose end: 2 generation; group: parental; systemic / organ weight / liver / nos
rabbit = details: Prenatal developmental toxicity study, new zealand white, Oral, Gavage/Intubation, dose end: 19 GD
rat [2] = details: Sub-acute dermal toxicity, sprague dawley, Topical, dose end: 28 day, group: systemic
rat [3] = details: Prenatal developmental toxicity study, sprague dawley, Oral, Gavage/Intubation, dose end: 15 GD
rat [4] = details: Subchronic oral toxicity in rodents, fischer, Gavage/Intubation, dose end: 13 week, group: systemic
rat [5] = details: Prenatal developmental toxicity study, sprague dawley, Oral, Gavage/Intubation, dose end: 15 GD; remark: listed apart in the source
rat [6] = details: Sub-acute repeat dose toxicity, fischer, Oral, Gavage/Intubation, dose end: 14 day, group: systemic
mouse [7] = details: Subchronic oral toxicity in rodents, b6c3f1, Gavage/Intubation, dose end: 13 week, group: systemic
mouse [8] = details: Sub-acute repeat dose toxicity, b6c3f1, Oral, Gavage/Intubation, dose end: 14 day, group: systemic
[9] = group: developmental, developmental / developmental malformation / bone / absent + developmental / developmental malformation / bone / malpositioned + …
[10] = group: maternal, systemic / in life observation / body weight / body weight gain + systemic / in life observation / food consumption / food consumption
[11] = group: maternal, systemic / in life observation / body weight / body weight gain + systemic / in life observation / food consumption / food consumption + …
[12] = systemic / in life observation / body weight / body weight gain + systemic / in life observation / clinical signs / erythema + systemic / in…
[13] = systemic / in life observation / clinical signs / erythema + systemic / pathology microscopic / skin / edema + systemic / in life …
[14] = group: developmental, developmental / developmental malformation / bone / supernumerary + systemic / in life observation / body weight / fetal weight
[15] = group: maternal, systemic / in life observation / clinical signs / body surface staining + systemic / in life observation / clinical signs / salivation + …
[16] = systemic / in life observation / body weight / body weight + systemic / in life observation / clinical signs / defecation (diarrhea)
[17] = group: developmental, systemic / in life observation / body weight / fetal weight
[18] = systemic / pathology microscopic / liver / degeneration
[19] = systemic / pathology microscopic / liver / degeneration + systemic / in life observation / body weight / body weight + systemic / in life …
[20] = systemic / in life observation / body weight / body weight
[21] = systemic / in life observation / body weight / body weight + systemic / in life observation / clinical signs / fur (altered appearance) + …

SMILES: O=S(=O)([O-])[O-].OC[P+](CO)(CO)CO.OC[P+](CO)(CO)CO [Tetrakis(hydroxymethyl)phosphonium sulfate]
- LEL (rat [1]): 15 mg/kg/day
- LOAEL (rat [1]): > 15 mg/kg/day
- NEL (rat [1]): 7.5 mg/kg/day
- NOAEL (rat [1]): ≥ 15 mg/kg/day
- LEL (rabbit; [9]): 60 mg/kg/day
- LOAEL (rabbit; [9]): 60 mg/kg/day
- NEL (rabbit; [9]): 18 mg/kg/day
- NOAEL (rabbit; [9]): 18 mg/kg/day
- LOAEL (rabbit; [10]): 60 mg/kg/day
- LEL (rabbit; [11]): 60 mg/kg/day
- NEL (rabbit; [11]): 18 mg/kg/day
- NOAEL (rabbit; [11]): 18 mg/kg/day
- LOAEL (rat [2]; [12]): > 500 mg/kg/day
- NOAEL (rat [2]; [12]): ≥ 500 mg/kg/day
- LEL (rat [2]; [13]): 25 mg/kg/day
- NEL (rat [2]; [13]): < 25 mg/kg/day
- LEL (rat [3]; [14]): 60 mg/kg/day
- LOAEL (rat [3]; [14]): 60 mg/kg/day
- NEL (rat [3]; [14]): 30 mg/kg/day
- NOAEL (rat [3]; [14]): 30 mg/kg/day
- LEL (rat [3]; [15]): 30 mg/kg/day
- LOAEL (rat [3]; [15]): 30 mg/kg/day
- NEL (rat [3]; [15]): 15 mg/kg/day
- NOAEL (rat [3]; [15]): 15 mg/kg/day
- LEL (rat [4]; [16]): 5 mg/kg/day
- NEL (rat [4]; [16]): < 5 mg/kg/day
- NOAEL (rat [4]; systemic / in life observation / body weight / body weight + systemic / in life observation / clinical signs / defecation (diarrhea) + …): 20 mg/kg/day
- LOAEL (rat [4]; systemic / in life observation / body weight / body weight + systemic / pathology microscopic / liver / degeneration): 40 mg/kg/day
- LEL (rat [5]; [17]): 60 mg/kg/day
- LOAEL (rat [5]; [17]): 60 mg/kg/day
- NEL (rat [5]; [17]): 30 mg/kg/day
- NOAEL (rat [5]; [17]): 30 mg/kg/day
- LEL (rat [5]; [10]): 60 mg/kg/day
- LOAEL (rat [5]; [10]): 60 mg/kg/day
- NEL (rat [5]; [11]): 30 mg/kg/day
- NOAEL (rat [5]; [11]): 30 mg/kg/day
- LOAEL (rat [6]; systemic / in life observation / body weight / body weight + systemic / in life observation / body weight / body weight gain): 25 mg/kg/day
- NOAEL (rat [6]; systemic / in life observation / body weight / body weight + systemic / in life observation / body weight / body weight gain + systemic / in…): 12.5 mg/kg/day
- LEL (rat [6]; systemic / in life observation / body weight / body weight gain): 25 mg/kg/day
- NEL (rat [6]; systemic / in life observation / body weight / body weight gain + systemic / in life observation / mortality / mortality): 12.5 mg/kg/day
- LEL (mouse [7]; [18]): 20 mg/kg/day
- LOAEL (mouse [7]; [18]): 20 mg/kg/day
- NEL (mouse [7]; [19]): 10 mg/kg/day
- NOAEL (mouse [7]; [19]): 10 mg/kg/day
- LEL (mouse [8]; [20]): 25 mg/kg/day
- LOAEL (mouse [8]; [20]): 50 mg/kg/day
- NEL (mouse [8]; [21]): 12.5 mg/kg/day
- NOAEL (mouse [8]; [21]): 25 mg/kg/day
